Article PMC9030697, “Engineering and Structural Insights of a Novel BBI-like Protease Inhibitor Livisin from the Frog Skin Secretion” (Toxins, 2022)
In brackets after ≈: the same amount, converted by molar mass. Read-outs that look alike come from different tables or passages of the source.

Legend:
human proteasome 20s = target: T1, human proteasome 20s (Homo sapiens, UniProt P28074); assay: Kinetic assay for the inhibition constant (Ki), 20s proteasome; type: biochemical
T1 construct: purchased Biochem, Boston, MA, USA
Procedure: (§1) The inhibitory activities against these proteases were tested at a peptide concentration ranging from 0.1 μM to 100 μM.
(§2) (a) Bovine trypsin; (b) matriptase; (c) chymotrypsin; (d) mesotrypsin; (e) human proteasome 20s. The activity of each protease was assayed in the presence of each peptide ranging from 0.1 μM to 100 μM in PBS (pH 7.4) and the corresponding substrate: Z-Gly-Gly-Arg-NHMec (trypsin); Suc-Ala-Ala-Pro-Phe-NHMec (chymotrypsin); Boc-Gln-Ala-Arg-AMC (matriptase); Mca-Arg-Pro-Val-Glu-Nval-Trp-Arg-Lys(Dnp)-NH2 (mesotrypsin); Suc-Leu-Leu-Val-Tyr-AMC (human proteasome 20s).
(§3) Kinetic assays for the inhibition constant (Ki). […] Inhibitory activities against the proteases of the peptides were tested using previously published papers and manufacturers’ instructions from 0.1 μM to 100 μM in PBS (pH 7.4). Wells of a black microtiter plate were loaded with designed different concentrations of peptide solution. […] For the human proteasome 20s, florescent was read after 15 min pre-incubation. The fluorescent products’ formation rate was measured continuously at 37 °C in the kinetic model using a multi-detection microplate reader (BMG Labtech, Ortenberg, Germany). […] Assays were repeated individually three times, and the Ki was calculated by non-linear regression (Morrison equation) using GraphPad Prism.

chymotrypsin = chymotrypsin (Bos taurus, UniProt P00766); assay: biochemical
Procedure: as §1, §2, §3

[1] = system: Staphylococcus aureus (NCTC 10788)
Procedure: (§4) The antimicrobial activities of the five peptides were assessed by determining their minimal inhibitory concentrations (MICs) against three standard microorganisms, the Gram-positive bacterium Staphylococcus aureus (NCTC 10788) and the Gram-negative bacterium Escherichia coli (NCTC 10418), and the opportunistic pathogen yeast Candida albicans (NCPF 1467).
(§5) Minimal inhibitory concentration assay. Antimicrobial activities of the peptides were monitored by determining their minimal inhibitory concentrations (MICs) using three standard microorganisms, which were Gram-positive bacterium Staphylococcus aureus (NCTC 10788), Gram-negative bacterium Escherichia coli (NCTC 10418), and opportunistic pathogen yeast Candida albicans (NCPF 1467). The peptides were dissolved in physiological PBS, two-fold diluted to obtain a series of concentrations, and added into wells of 96-well microtiter plates. The respective concentrations of peptides and controls were incubated with microorganism cultures (5 × 10^5 colony-forming units/mL) for 18 h at 37 °C in a humidified atmosphere. Then, the growth of microorganisms was detected by measuring optical density at λ = 550 nm using an absorbance reader (BioTek Instruments, Winooski, VT, USA). MIC was defined as the minimum concentration of peptide at which no growth was detectable.

[2] = system: Candida albicans (NCPF 1467)
Procedure: as §4, §5

[3] = system: Escherichia coli (NCTC 10418)
Procedure: as §4, §5

bovine trypsin = target: T2, bovine trypsin (Bos taurus, UniProt P00760); assay: Kinetic assay for the inhibition constant (Ki), trypsin; type: biochemical
T2 construct: purchased Sigma-Aldrich
T2 sequence (P00760 24-246): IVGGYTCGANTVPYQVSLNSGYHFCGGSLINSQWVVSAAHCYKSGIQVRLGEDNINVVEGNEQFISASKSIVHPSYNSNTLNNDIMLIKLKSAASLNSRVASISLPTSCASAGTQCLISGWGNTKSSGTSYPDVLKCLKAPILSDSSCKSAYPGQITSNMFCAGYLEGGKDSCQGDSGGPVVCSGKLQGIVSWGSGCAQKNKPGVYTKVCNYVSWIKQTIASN
Procedure: as §1, §2, §3

mesotrypsin = target: T3, mesotrypsin (Homo sapiens, UniProt P35030); assay: Kinetic assay for the inhibition constant (Ki), mesotrypsin; type: biochemical
T3 construct: purchased R&D systems
T3 sequence (P35030 1-304): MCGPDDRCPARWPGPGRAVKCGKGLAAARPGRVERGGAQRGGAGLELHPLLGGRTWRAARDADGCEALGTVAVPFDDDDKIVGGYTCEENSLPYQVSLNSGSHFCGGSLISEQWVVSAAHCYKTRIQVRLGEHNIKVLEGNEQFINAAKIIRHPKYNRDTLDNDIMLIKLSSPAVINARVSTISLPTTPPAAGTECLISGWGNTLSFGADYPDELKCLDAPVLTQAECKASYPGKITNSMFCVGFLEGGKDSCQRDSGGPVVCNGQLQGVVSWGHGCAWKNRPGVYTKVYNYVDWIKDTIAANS
Procedure: as §1, §2, §3

human matriptase-1 = target: T4, human matriptase-1 (Homo sapiens, UniProt Q9Y5Y6); assay: Kinetic assay for the inhibition constant (Ki), matriptase; type: biochemical
T4 construct: purchased R&D systems
T4 sequence (Q9Y5Y6 1-855): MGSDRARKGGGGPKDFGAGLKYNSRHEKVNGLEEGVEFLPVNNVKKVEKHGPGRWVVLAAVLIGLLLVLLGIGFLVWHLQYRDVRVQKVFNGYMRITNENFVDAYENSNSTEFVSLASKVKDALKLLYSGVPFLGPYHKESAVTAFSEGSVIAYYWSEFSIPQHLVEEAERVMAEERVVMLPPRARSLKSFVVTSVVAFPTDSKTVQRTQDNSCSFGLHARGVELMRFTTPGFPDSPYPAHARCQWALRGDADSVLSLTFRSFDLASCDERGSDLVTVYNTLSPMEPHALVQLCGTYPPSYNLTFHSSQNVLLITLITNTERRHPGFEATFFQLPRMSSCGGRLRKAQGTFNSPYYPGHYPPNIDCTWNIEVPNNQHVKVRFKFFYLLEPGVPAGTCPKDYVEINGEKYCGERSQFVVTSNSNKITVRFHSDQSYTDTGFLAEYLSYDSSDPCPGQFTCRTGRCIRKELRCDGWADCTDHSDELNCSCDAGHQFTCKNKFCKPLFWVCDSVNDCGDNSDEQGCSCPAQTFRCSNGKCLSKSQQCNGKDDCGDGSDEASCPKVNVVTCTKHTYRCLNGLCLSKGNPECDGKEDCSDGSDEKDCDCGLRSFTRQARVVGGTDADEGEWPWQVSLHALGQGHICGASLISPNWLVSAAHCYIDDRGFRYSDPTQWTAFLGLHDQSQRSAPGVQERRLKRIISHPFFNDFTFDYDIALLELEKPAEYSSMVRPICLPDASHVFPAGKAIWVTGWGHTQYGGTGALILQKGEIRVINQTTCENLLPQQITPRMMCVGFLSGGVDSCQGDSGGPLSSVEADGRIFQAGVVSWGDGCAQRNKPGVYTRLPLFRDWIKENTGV
Procedure: as §1, §2, §3

[4] = two-fold dilutions in PBS, 5 × 10^5 CFU/mL, 18 h at 37 °C, OD 550 nm, highest concentration 512 μg/mL

| Compound | Ki (human proteasome 20s; peptide 0.1-100 μM in PBS pH 7.4, substrate Suc-Leu-Leu-Val-Tyr-AMC 20 μM, 15 min pre-incubation, 37 °C, fluorescence, Morrison equation, three independent experiments, each in duplicate, NI = no inhibition, read-out: Ki 20s Proteasome) [µM] | Ki (chymotrypsin) [µM] | MIC S. aureus (NCTC 10788) ([1]; NCTC 10788, 18 h) [µg/mL] | MIC C. albicans (NCPF 1467) ([2]; NCPF 1467, 18 h) [µg/mL] | MIC E. coli (NCTC 10418) ([3]; NCTC 10418, 18 h) [µg/mL] | Ki (bovine trypsin) [µM] | Ki (mesotrypsin; peptide 0.1-100 μM in PBS pH 7.4, substrate Mca-Arg-Pro-Val-Glu-Nval-Trp-Arg-Lys(Dnp)-NH2 20 μM, 37 °C, continuous fluorescence, Morrison equation, three independent experiments, each in duplicate, NI = no inhibition, read-out: Ki Mesotrypsin) [µM] | Ki (human matriptase-1; human matriptase, peptide 0.1-100 μM in PBS pH 7.4, substrate Boc-Gln-Ala-Arg-AMC 20 μM, 37 °C, continuous fluorescence, Morrison equation, three independent experiments, each in duplicate, NI = no inhibition, read-out: Ki Matriptase) [µM] | Ki (human proteasome 20s; read-out: Ki 20s Proteasome, peptide 0.1-100 μM in PBS pH 7.4, substrate Suc-Leu-Leu-Val-Tyr-AMC 20 μM, 15 min pre-incubation, 37 °C, fluorescence, Morrison equation, three independent experiments, each in duplicate, NI = no inhibition) [µM] | MIC S. aureus (NCTC 10788) [1, 4] [µg/mL] | MIC C. albicans, given in μM ([2]; same MIC as 256 μg/mL, printed in molar unit, 18 h at 37 °C, OD 550 nm) [µM] | MIC C. albicans (NCPF 1467) [2, 4] [µg/mL] | MIC E. coli (NCTC 10418) [3, 4] [µg/mL] | Ki (bovine trypsin; bovine trypsin, peptide 0.1-100 μM in PBS pH 7.4, substrate Z-Gly-Gly-Arg-NHMec 45 μM, 37 °C, continuous fluorescence, Morrison equation, three independent experiments, each in duplicate, NI = no inhibition, read-out: Ki Trypsin) [µM] | Ki (mesotrypsin) [µM] | Ki (human matriptase-1) [µM] |
| --- | --- | --- | --- | --- | --- | --- | --- | --- | --- | --- | --- | --- | --- | --- | --- | --- |
| CC(C)C[C@H](NC(=O)[C@@H]1CSSC[C@H](NC(=O)CNC(=O)[C@H](CCCNC(=N)N)NC(=O)[C@H](CC(C)C)NC(=O)[C@H](Cc2ccccc2)NC(=O)CN)C(=O)N[C@@H](Cc2c[nH]c3ccccc23)C(=O)N[C@@H]([C@@H](C)O)C(=O)N[C@@H](CCCNC(=N)N)C(=O)N[C@@H](CO)C(=O)N[C@@H](Cc2ccccc2)C(=O)N2CCC[C@H]2C(=O)N2CCC[C@H]2C(=O)N[C@@H](CCCCN)C(=O)N2CCC[C@H]2C(=O)N1)C(=O)O [livisin-Arg] | > 100 | 74.7 | >512 | >512 | >512 | 1.02 | 32.1 | 46.9 | – | – | – | – | – | – | – | – |
| CC(C)C[C@H](NC(=O)[C@@H]1CSSC[C@H](NC(=O)CNC(=O)[C@H](CCCNC(=N)N)NC(=O)[C@H](CC(C)C)NC(=O)[C@H](Cc2ccccc2)NC(=O)CN)C(=O)N[C@@H](Cc2c[nH]c3ccccc23)C(=O)N[C@@H]([C@@H](C)O)C(=O)N[C@@H](CCCCN)C(=O)N[C@@H](CO)C(=O)N[C@@H](Cc2ccccc2)C(=O)N2CCC[C@H]2C(=O)N2CCC[C@H]2C(=O)N[C@@H](CCCCN)C(=O)N2CCC[C@H]2C(=O)N1)C(N)=O [livisin-NH2] | – | 144 | – | – | – | – | – | – | > 100 | >512 | 132 (≈ 255 µg/mL) | 256 (≈ 132 µM) | >512 | 0.424 | 18.6 | 2.36 |
